Results reported in ChEMBL document CHEMBL3885881, “DrugMatrix”.

Species: Rattus norvegicus
Assay: DrugMatrix - Regimen: Daily Repeat
Assay type: toxicity, organism-based, Sprague-Dawley
Set-up: regimen Daily Repeat, gender Male, age 6-8 weeks
Conditions: in vivo, po, route oral GAVAGE, […]; for ABSOLUTE BASOPHIL / ABSOLUTE EOSINOPHIL / ABSOLUTE LYMPHOCYTE / ABSOLUTE MONOCYTE / ABSOLUTE SEGMENTED NEUTROPHIL / BASOPHIL / EOSINOPHIL / ERYTHROCYTE COUNT / HEMATOCRIT / HEMOGLOBIN / LEUKOCYTE COUNT / LYMPHOCYTE / MEAN CORPUSCULAR HEMOGLOBIN / MEAN CORPUSCULAR HEMOGLOBIN CONCENTRATION / MEAN CORPUSCULAR VOLUME / MONOCYTE / NEUTROPHIL / NUCLEATED RED BLOOD CELLS / PLATELET COUNT: tissue Blood; for ALANINE AMINOTRANSFERASE / ALBUMIN / ALKALINE PHOSPHATASE / ASPARTATE AMINOTRANSFERASE / BLOOD UREA NITROGEN / CARBON DIOXIDE / CHLORIDE / CHOLESTEROL / CREATINE PHOSPHOKINASE / CREATININE / GLUCOSE / LACTATE DEHYDROGENASE / LIPASE / PHOSPHORUS / POTASSIUM / SODIUM / TOTAL BILIRUBIN / TOTAL PROTEIN / URIC ACID: tissue Plasma
[1] = 10 mg/kg, 72 h, dose level Low, time 3 day
[2] = 10 mg/kg, 120 h, dose level Low, time 5 day
[3] = 50 mg/kg, 72 h, dose level High, time 3 day
[4] = 50 mg/kg, 120 h, dose level High, time 5 day

## CC(C)CC(N(C)C)C1(c2ccc(Cl)cc2)CCC1 (configuration not stated) [SIBUTRAMINE]
[1]
  ABSOLUTE BASOPHIL: 0 CELLS/uL
  ABSOLUTE EOSINOPHIL: 0 CELLS/uL
  ABSOLUTE LYMPHOCYTE: 16618.67 CELLS/uL
  ABSOLUTE MONOCYTE: 131.33 CELLS/uL
  ABSOLUTE SEGMENTED NEUTROPHIL: 1483.33 CELLS/uL
  BASOPHIL: 0%
  EOSINOPHIL: 0%
  ERYTHROCYTE COUNT: 5.37 x10E6/uL
  HEMATOCRIT: 34.23%
  HEMOGLOBIN: 13.53 G/DL
  LEUKOCYTE COUNT: 18.23 x10E3/uL
  LYMPHOCYTE: 91%
  MEAN CORPUSCULAR HEMOGLOBIN: 25.17 pg
  MEAN CORPUSCULAR HEMOGLOBIN CONCENTRATION: 39.53 G/DL
  MEAN CORPUSCULAR VOLUME: 63.67 fL
  MONOCYTE: 0.67%
  NEUTROPHIL: 8.33%
  NUCLEATED RED BLOOD CELLS: 0.33 /100WBC
  PLATELET COUNT: 1187.67 x10E3/uL
  ALANINE AMINOTRANSFERASE: 61.33 u/L
  ALBUMIN: 3.93 G/DL
  ALKALINE PHOSPHATASE: 368 u/L
  ASPARTATE AMINOTRANSFERASE: 88.33 u/L
  BLOOD UREA NITROGEN: 12 mg/dL
  CARBON DIOXIDE: 33 mmol/L
  CHLORIDE: 100.33 MEQ/L
  CHOLESTEROL: 70 mg/dL
  CREATINE PHOSPHOKINASE: 531.67 u/L
  CREATININE: 0.1 mg/dL
  GLUCOSE: 158.33 mg/dL
  LACTATE DEHYDROGENASE: 253.33 u/L
  LIPASE: 10.33 u/L
  PHOSPHORUS: 11.93 mg/dL
  POTASSIUM: 6.44 MEQ/L
  SODIUM: 140.57 MEQ/L
  TOTAL BILIRUBIN: 0.13 mg/dL
  TOTAL PROTEIN: 5.37 G/DL
  URIC ACID: 1.27 mg/dL
[2]
  ABSOLUTE BASOPHIL: 0 CELLS/uL
  ABSOLUTE EOSINOPHIL: 0 CELLS/uL
  ABSOLUTE LYMPHOCYTE: 12939.67 CELLS/uL
  ABSOLUTE MONOCYTE: 411.33 CELLS/uL
  ABSOLUTE SEGMENTED NEUTROPHIL: 1515.67 CELLS/uL
  BASOPHIL: 0%
  EOSINOPHIL: 0%
  ERYTHROCYTE COUNT: 5.44 x10E6/uL
  HEMATOCRIT: 33.73%
  HEMOGLOBIN: 13.47 G/DL
  LEUKOCYTE COUNT: 14.87 x10E3/uL
  LYMPHOCYTE: 86.67%
  MEAN CORPUSCULAR HEMOGLOBIN: 24.83 pg
  MEAN CORPUSCULAR HEMOGLOBIN CONCENTRATION: 39.93 G/DL
  MEAN CORPUSCULAR VOLUME: 62.2 fL
  MONOCYTE: 2.67%
  NEUTROPHIL: 10.67%
  NUCLEATED RED BLOOD CELLS: 0 /100WBC
  PLATELET COUNT: 1072.33 x10E3/uL
  ALANINE AMINOTRANSFERASE: 55.67 u/L
  ALBUMIN: 4.07 G/DL
  ALKALINE PHOSPHATASE: 363.67 u/L
  ASPARTATE AMINOTRANSFERASE: 79.33 u/L
  BLOOD UREA NITROGEN: 14 mg/dL
  CARBON DIOXIDE: 34.33 mmol/L
  CHLORIDE: 101.33 MEQ/L
  CHOLESTEROL: 72 mg/dL
  CREATINE PHOSPHOKINASE: 211.33 u/L
  CREATININE: 0.23 mg/dL
  GLUCOSE: 148.67 mg/dL
  LACTATE DEHYDROGENASE: 269 u/L
  LIPASE: 11 u/L
  PHOSPHORUS: 10.8 mg/dL
  POTASSIUM: 6.14 MEQ/L
  SODIUM: 143.2 MEQ/L
  TOTAL BILIRUBIN: 0.17 mg/dL
  TOTAL PROTEIN: 5.57 G/DL
  URIC ACID: 1.07 mg/dL
[3]
  ABSOLUTE BASOPHIL: 0 CELLS/uL
  ABSOLUTE EOSINOPHIL: 0 CELLS/uL
  ABSOLUTE LYMPHOCYTE: 12941.33 CELLS/uL
  ABSOLUTE MONOCYTE: 144.33 CELLS/uL
  ABSOLUTE SEGMENTED NEUTROPHIL: 2147.67 CELLS/uL
  BASOPHIL: 0%
  EOSINOPHIL: 0%
  ERYTHROCYTE COUNT: 5.65 x10E6/uL
  HEMATOCRIT: 35.8%
  HEMOGLOBIN: 14.6 G/DL
  LEUKOCYTE COUNT: 15.23 x10E3/uL
  LYMPHOCYTE: 85.33%
  MEAN CORPUSCULAR HEMOGLOBIN: 25.83 pg
  MEAN CORPUSCULAR HEMOGLOBIN CONCENTRATION: 40.8 G/DL
  MEAN CORPUSCULAR VOLUME: 63.37 fL
  MONOCYTE: 1%
  NEUTROPHIL: 13.67%
  NUCLEATED RED BLOOD CELLS: 0 /100WBC
  PLATELET COUNT: 1122.33 x10E3/uL
  ALANINE AMINOTRANSFERASE: 51.33 u/L
  ALBUMIN: 3.67 G/DL
  ALKALINE PHOSPHATASE: 417 u/L
  ASPARTATE AMINOTRANSFERASE: 96 u/L
  BLOOD UREA NITROGEN: 13 mg/dL
  CARBON DIOXIDE: 31.67 mmol/L
  CHLORIDE: 102.33 MEQ/L
  CHOLESTEROL: 68.67 mg/dL
  CREATINE PHOSPHOKINASE: 259.67 u/L
  CREATININE: 0.14 mg/dL
  GLUCOSE: 156.33 mg/dL
  LACTATE DEHYDROGENASE: 181 u/L
  LIPASE: 10 u/L
  PHOSPHORUS: 11.27 mg/dL
  POTASSIUM: 5.99 MEQ/L
  SODIUM: 144.97 MEQ/L
  TOTAL BILIRUBIN: 0.17 mg/dL
  TOTAL PROTEIN: 5.37 G/DL
  URIC ACID: 1.3 mg/dL
[4]
  ABSOLUTE BASOPHIL: 0 CELLS/uL
  ABSOLUTE EOSINOPHIL: 0 CELLS/uL
  ABSOLUTE LYMPHOCYTE: 16000.33 CELLS/uL
  ABSOLUTE MONOCYTE: 0 CELLS/uL
  ABSOLUTE SEGMENTED NEUTROPHIL: 833 CELLS/uL
  BASOPHIL: 0%
  EOSINOPHIL: 0%
  ERYTHROCYTE COUNT: 5.75 x10E6/uL
  HEMATOCRIT: 36.37%
  HEMOGLOBIN: 14.3 G/DL
  LEUKOCYTE COUNT: 16.83 x10E3/uL
  LYMPHOCYTE: 95%
  MEAN CORPUSCULAR HEMOGLOBIN: 24.9 pg
  MEAN CORPUSCULAR HEMOGLOBIN CONCENTRATION: 39.33 G/DL
  MEAN CORPUSCULAR VOLUME: 63.37 fL
  MONOCYTE: 0%
  NEUTROPHIL: 5%
  NUCLEATED RED BLOOD CELLS: 0 /100WBC
  PLATELET COUNT: 1265 x10E3/uL
  ALANINE AMINOTRANSFERASE: 57.33 u/L
  ALBUMIN: 4.07 G/DL
  ALKALINE PHOSPHATASE: 391.67 u/L
  ASPARTATE AMINOTRANSFERASE: 95.67 u/L
  BLOOD UREA NITROGEN: 14.67 mg/dL
  CARBON DIOXIDE: 30 mmol/L
  CHLORIDE: 102 MEQ/L
  CHOLESTEROL: 56 mg/dL
  CREATINE PHOSPHOKINASE: 585 u/L
  CREATININE: 0.11 mg/dL
  GLUCOSE: 164 mg/dL
  LACTATE DEHYDROGENASE: 175.33 u/L
  LIPASE: 9.67 u/L
  PHOSPHORUS: 12.43 mg/dL
  POTASSIUM: 6.27 MEQ/L
  SODIUM: 142.13 MEQ/L
  TOTAL BILIRUBIN: 0.1 mg/dL
  TOTAL PROTEIN: 5.6 G/DL
  URIC ACID: 1.73 mg/dL
